This is an account of results in patent US20060205949A1, “Crystalline forms of a biphenyl compound” (THERAVANCE, INC., priority 2005, published 2006).

Where only a bound is given, the exact number is not on record here.

The test deals with T1, hM2 receptor (CHO-K1 cells) (Homo sapiens, UniProt P08172).
T1 construct: expressed in transfected cells; host or cells: CHO-K1 cells
T1 sequence (P08172 1-466): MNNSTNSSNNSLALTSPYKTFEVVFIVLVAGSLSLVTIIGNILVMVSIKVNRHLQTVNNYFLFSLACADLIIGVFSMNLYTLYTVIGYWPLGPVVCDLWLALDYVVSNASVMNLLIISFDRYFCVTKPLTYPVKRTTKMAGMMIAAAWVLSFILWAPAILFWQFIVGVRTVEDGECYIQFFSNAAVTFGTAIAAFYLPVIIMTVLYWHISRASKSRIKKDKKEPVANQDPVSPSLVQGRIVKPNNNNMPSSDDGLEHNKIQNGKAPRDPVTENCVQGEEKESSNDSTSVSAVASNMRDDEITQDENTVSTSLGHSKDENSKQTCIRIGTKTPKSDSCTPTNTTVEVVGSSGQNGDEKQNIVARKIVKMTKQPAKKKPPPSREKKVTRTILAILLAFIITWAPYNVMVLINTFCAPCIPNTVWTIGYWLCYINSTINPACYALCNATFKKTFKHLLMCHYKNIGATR
The experiment in a line: Blockade of agonist-mediated [35S]GTPγS binding. The following applies: CHO-K1 cells expressing the hM2 receptor; this or a similar assay; read-out: Ki value for blockade of oxotremorine-stimulated [35S]GTPγS binding. The format is biochemical. As to the method:
In a second functional assay, the functional potency of test compounds can be determined by measuring the ability of the compounds to block oxotremorine-stimulated [^35S]GTPγS binding in CHO-K1 cells expressing the hM2 receptor.
At the time of use, frozen membranes were thawed and then diluted in assay buffer with a final target tissue concentration of 5-10 μg protein per well. The membranes were briefly homogenized using a Polytron PT-2100 tissue disrupter and then added to the assay plates. The EC90 value (effective concentration for 90% maximal response) for stimulation of [^35S]GTPγS binding by the agonist oxotremorine was determined in each experiment.
The assay plates were then incubated at 37° C. for 60 minutes. The assay plates were filtered over 1% BSA-pretreated GF/B filters using a PerkinElmer 96-well harvester. The plates were rinsed with ice-cold wash buffer for 3×3 seconds and then air or vacuum dried. Microscint-20 scintillation liquid (50 μL) was added to each well, and each plate was sealed and radioactivity counted on a topcounter (PerkinElmer). Data were analyzed by nonlinear regression analysis with the GraphPad Prism Software package (GraphPad Software, Inc., San Diego, Calif.) using the non-linear regression, one-site competition equation. […]
In general terms: GTPγS is a poorly hydrolysed GTP analogue; its binding reports G protein activation.

As usually defined, the Ki is a dissociation constant, usually derived from enzyme kinetics or from competition with a known ligand. In the case of `O=C(CCN1CCC(OC(=O)Nc2ccccc2-c2ccccc2)CC1)NCCCCCNCc1ccc(O)cc1` [compound of formula I, biphenyl-2-ylcarbamic acid 1-{2-[5-(4-hydroxybenzylamino)pentylcarbamoyl]ethyl}piperidin-4-yl ester], the Ki is under 10 nM.
